≈ marks a conversion by molar mass, not a printed value.
What was measured:
[1] = biological target: T1, HIV "Reverse Transcriptase" (Human immunodeficiency virus type 1 group M subtype B, UniProt P04585); assay: Inhibition of HIV "Reverse Transcriptase" (Scintillation Proximity Assay); type: biochemical; conditions: RT-SPA, RT from HIV cloned in E. coli, 60 minutes (37° C.)
T1 construct: purchased HT-Biotechnology Ltd., Cambridge, UK; host or cells: E. coli
Protocol: Investigation of the substances for inhibition of HIV "Reverse Transcriptase"
The activity of reverse transcriptase (RT) was determined with the aid of a "Scintillation Proximity Assay" (SPA). The reagent kit for the RT-SPA was obtained from Amersham/Buchler (Braunschweig). The enzyme RT (from HIV cloned in E. coli) originated from HT-Biotechnology Ltd., Cambridge, UK.
The test was carried out in accordance with the method manual of the manufacturer Amersham--with the following modifications:
bovine serum albumin was added to the "assay" buffer to the final concentration of 0.5 mg/ml.
the test was carried out in Eppendorf reaction vessels with a batch volume of […].
the RT concentrate of the manufacturer (5000 U/ml) was diluted to an activity of 15 U/ml in tris-HCl buffer 20 mM; pH 7.2; 30% of glycerol.
the incubation time for the batches was 60 minutes (37° C.).
after the reaction had been stopped and after "development" with the bead suspension, […] of the batch were transferred to 4.5 ml of tris-HCl buffer, 10 mM; pH 7.4; 0.15M NaCl, and the tritium activity was measured in a β-counter.
Testing of the substances:
For a preliminary test of the inhibitor activity, the substances were dissolved in dimethyl sulfoxide (stock solution c=1 mg/ml) and tested in a dilution in dimethyl sulfoxide of 10^-1, 10^-2, 10^-3 and the like to determine IC50 values, the inhibitor stock solutions were further diluted in tris-HCl buffer, 50 mM, pH 8 and tested in suitable concentrations. The concentration associated with 50% enzyme inhibition was determined from the graph of RT activity against Log Cinh.

HIV = assay: Testing of preparations against HIV in a cell culture (T-Cell culture assay); type: cell-based; conditions: Human immunodeficiency virus 1, 72 h; HIV-infected lymphocytes, 37° C. for 3 days; lowest concentration at which no giant cells occurred; read-out: T-Cell culture assay Minimum inhibitory concentration
Protocol: Testing of preparations against HIV in a cell culture
Description of the method
The complete medium additionally contains 20% of fetal calf serum and 40 IU/ml of recombinant interleukin 2. Cells:
Lymphocytes isolated from fresh donor blood by means of Ficol® gradient centrifugation are cultured, with addition of […] of phytohemagglutinin (Wellcome) in the complete medium at 37° C. under 5% of CO2 for 36 hours. After addition of 10% of dimethyl sulfoxide, the cells are frozen at a cell density of 5×10^6 and stored in liquid nitrogen. For the experiment, the cells are thawed, washed in RPMI medium and cultured in the complete medium for 3-4 days.
The test preparations were dissolved in dimethyl sulfoxide in a concentration of 16.7 mg/ml and diluted to 1 mg/ml in complete medium.
0.4 ml of medium was initially introduced into 24-well multiwell dishes. After addition of 0.1 ml of the dissolved preparation into the upper row of the dish, a geometric dilution series was produced by transferring in each case 0.1 ml. Preparation-free controls always contained 0.4 ml of complete medium with 0.5% of dimethyl sulfoxide.
Lymphocyte cultures having a cell count of 5×10^5 cells/ml were infected by addition of 1/50 of the volume of supernatant from HIV-infected lymphocyte cultures. The titer of these culture supernatants was determined by end point dilution with 1-5×10^6 infectious units/ml. After incubation at 37° C. for 30 minutes, the infected lymphocytes were centrifuged off and taken up again in the same volume of medium. In each case 0.6 ml of this cell suspension was introduced into each of the depression walls of the test plate. The batches were incubated at 37° C. for 3 days.
The infected cell cultures were examined under the microscope for the presence of giant cells, which indicate active multiplication of the virus in the culture. The lowest concentration of preparation at which no giant cells occurred was determined as the inhibitory concentration against HIV. As a control, the supernatants from the culture plates were investigated for the presence of the HIV antigen with the aid of an HIV antigen test in accordance with the manufacturer's information (Organon).

| Compound | IC50 [1] [nM] | MIC (HIV) [µg/mL] | Reverse transcriptase assay IC50 [1] [µg/mL] |
| --- | --- | --- | --- |
| CCON=C1c2cc(Cl)ccc2NC(=NO)C1(C)C [Example 70, anti-6-Chloro-3,3,-dimethyl-4-(ethyloxyimino)-2-hydroxyimino-1,3-dihydroquinoline] | 3.55 to 35.5 | – | – |
| CCON=C1c2cc(Cl)ccc2NC(=O)C1CC (stereo not drawn) [Example 39] | 37.5 to 375 | 1 (≈ 3.75 µM) | – |
| CCON=C1c2cc(Cl)ccc2NC(=O)C1(C)C [Example 4, syn-6-Chloro-3,3-dimethyl-4-(ethyloxyimino)-l,3-dihydroquinolin-2-one] | 37.5 to 375 | – | – |
| CCON=C1c2cc(Cl)ccc2NC(=O)C1(C)C [Example 2, anti-6-Chloro-3,3-dimethyl-4-(ethyloxyimino)-1,3-dihydroquinolin-2-one] | 82.5 | 0.2 (≈ 0.75 µM) | – |
| CC1(C)C(=S)Nc2ccc(Cl)cc2C1=NOCc1ccccc1Cl [Example 30] | 264 to 2640 | – | – |
| C=CCON=C1c2cc(Cl)ccc2NC(=S)C1(C)C [Example 48] | 3.39 to 33.9 | 0.04 (≈ 0.136 µM) | – |
| CC(C)ON=C1c2cc(OC(F)(F)F)ccc2NC(=S)C1(C)C [Example 87] | 28.9 to 289 | 0.04 (≈ 0.115 µM) | – |
| CON=C1c2cc(Cl)ccc2NC(=S)C1(C)C [Example 35] | 3.72 to 37.2 | – | – |
| CC1(C)C(=S)Nc2ccc(Cl)cc2C1=NOCc1cccc(Cl)c1 [Example 24] | 26.4 to 264 | – | – |
| CC(C)=NN=C1c2cc(Cl)ccc2NC(=S)C1(C)C [Example 62] | 3.4 to 34 | 0.04 (≈ 0.136 µM) | – |
| CSc1ccc2c(c1)C(=NOC(C)C)C(C)(C)C(=S)N2 [Example 82] | 32.4 to 324 | < 0.08 | – |
| CCC1C(=N)c2cc(Cl)ccc2NC1=S (stereo not drawn) [Example 42] | 4190 to 41900 | – | – |
| CC1(C)C(=S)Nc2ccc(Cl)cc2C1=NOCc1ccccc1[N+](=O)[O-] [Example 21] | 256 to 2560 | – | – |
| CCON=C1c2cc(Cl)ccc2N=C(Nc2ccccc2)C1(C)C [Example 131] | 29.3 to 293 | 1 (≈ 2.93 µM) | – |
| COc1ccc2c(c1)C(=NOC(C)C)C(C)(C)C(=S)N2 [Example 45] | 3.42 to 34.2 | – | – |
| CC1(C)C(=O)Nc2ccc(Cl)cc2C1=NOCc1cccc(Cl)c1 [Example 23] | 275 to 2750 | – | – |
| COCCON=C1c2cc(Cl)ccc2NC(=S)C1(C)C [Example 33] | ~32 | 0.2 (≈ 0.639 µM) | – |
| CCC(C)ON=C1c2cc(Cl)ccc2NC(=S)C1(C)C (stereo not drawn) [Example 67] | 32.2 to 322 | 0.04 (≈ 0.129 µM) | – |
| CCON=C1c2cc(OCC)ccc2NC(=NO)C1(C)C [Example 124] | ~343 | 0.4 (≈ 1.37 µM) | – |
| CCON=C1c2cc(Cl)ccc2N=C(Nc2ccc(Cl)cc2)C1(C)C [Example 132] | ~266 | – | – |
| CSCCON=C1c2cc(Cl)ccc2NC(=S)C1(C)C [Example 50] | 30.4 to 304 | 0.2 (≈ 0.608 µM) | – |
| CCC(C)ON=C1c2cc(Cl)ccc2NC(=O)C1(C)C (stereo not drawn) [Example 52] | 33.9 to 339 | – | – |
| anti-6-Chloro-3,3-dimethyl-4-(isopropylazino)-1,3-dihydroquinolin-2-one [Example 12] | – | – | 0.01 to 0.1 |
| CCON=C1c2cc(Cl)ccc2NC(=S)C1(C)C [Example 3, anti-6-Chloro-3,3-dimethyl-4-(ethyloxyimino)-l,3-dihydroquinoline-2-thione] | 14.1 | 0.008 (≈ 0.0283 µM) | – |
| CCC1C(=O)Nc2ccc(Cl)cc2C1=NO (stereo not drawn) [Example 38] | 4190 to 41900 | – | – |
| CCC1C(=O)Nc2ccc(Cl)cc2C1=NOC(C)C (stereo not drawn) [Example 40] | 35.6 to 356 | – | – |
| CC1(C)C(=O)N(Cc2ccccc2)c2ccc(Cl)cc2C1=NOCc1ccccc1 [Example 10B, anti-(1-Benzyl)-4-(benzyloxyimino)-6-chloro-3,3-dimethyl-1,3-dihydroquinolin-2-one] | > 23900 | – | – |

| Compound | IC50 [1] [nM] | MIC (HIV) [µg/mL] | Reverse transcriptase assay IC50 [1] [µg/mL] |
| --- | --- | --- | --- |
| CON=C1c2cc(Cl)ccc2NC(=O)C1(C)C [Example 34] | 39.6 to 396 | – | – |
| COc1ccc2c(c1)C(=NOC(C)C)C(C)(C)C(=O)N2 [Example 44] | ~36.2 | – | – |
| CSCCON=C1c2cc(Cl)ccc2NC(=O)C1(C)C [Example 49] | 320 to 3200 | – | – |
| C#CCON=C1c2cc(Cl)ccc2NC(=O)C1(C)C [Example 51] | 36.1 to 361 | – | – |
| CCON=C1c2cc(Cl)ccc2NC(=S)C1(C)C [Example 5, syn-6-Chloro-3,3-dimethyl-4-(ethyloxyimino)-1,3-dihydroquinoline-2-thione] | – | – | 0.001 to 0.01 |
| CCON=C1c2cc(OC)ccc2NC(=S)C1(C)C [Example 43] | 3.59 to 35.9 | – | – |
| CCON=C1c2cc(Cl)ccc2NC(=S)C12CCC2 [Example 115] | 3.39 to 33.9 | 0.04 (≈ 0.136 µM) | – |
| CC1(C)C(=S)Nc2ccc(Cl)cc2C1=NOCc1ccc(Cl)cc1 [Example 27] | 2640 to 26400 | – | – |
| CC(C)ON=C1c2cc(Cl)ccc2NC(=S)C12CCC2 [Example 120] | 3.24 to 32.4 | – | – |
| CCON=C1c2cc(Cc3ccncc3)ccc2NC(=S)C1(C)C [Example 104] | ~29.5 | 0.04 (≈ 0.118 µM) | – |
| C=CCON=C1c2cc(Cl)ccc2NC(=O)C1(C)C [Example 47] | 35.9 to 359 | – | – |
| CCON=C1c2cc(Cl)ccc2NC(=O)C12CCC2 [Example 114] | 21.5 | – | – |
| CSc1ccc2c(c1)C(=NOC(C)C)C(C)(C)C(=O)N2 [Example 78] | 34.2 to 342 | – | – |
| CC1(C)C(=S)Nc2ccc(Cl)cc2C1=NOCc1ccccc1 [Example 16] | 290 to 2900 | – | – |
| CCON=C1c2cc(Cl)ccc2NC(=S)C12CCCC2 [Example 122] | – | 0.008 (≈ 0.0259 µM) | – |
| CC1(C)C(=O)Nc2ccc(Cl)cc2C1=NOCc1ccccc1[N+](=O)[O-] [Example 20] | 2680 to 26800 | – | – |
| CC(C)ON=C1c2cc(Cl)ccc2NC(=S)C1(C)C [Example 7, anti-6-Chloro-3,3-dimethyl-4-(isopropyloxyimino)-l,3-dihydroquinoline-2-thione] | 20.2 | 0.008 (≈ 0.027 µM) | – |
| CCON=C1c2cc(Cc3ccncc3)ccc2NC(=O)C1(C)C [Example 103] | 30.9 to 309 | 0.04 (≈ 0.124 µM) | – |
| CC(C)ON=C1c2cc(Cl)ccc2NC(=O)C12CCCC2 [Example 123] | 3.26 to 32.6 | – | – |
| CC(C)ON=C1c2cc(Cl)ccc2NC(=O)C1(C)C [Example 6, anti-6-Chloro-3,3-dimethyl-4-(isopropyloxyimino)-l,3dihydroquinolin-2-one] | 3.56 to 35.6 | 0.008 (≈ 0.0285 µM) | – |
| CCC1(CC)C(=O)Nc2ccc(Cl)cc2C1=NOC(C)C [Example 119] | 3.24 to 32.4 | 0.008 (≈ 0.0259 µM) | – |
| CC(C)ON=C1c2cc(Cl)ccc2NC(=S)C12CCCC2 [Example 117] | 3.1 to 31 | – | – |
| CCCON=C1c2cc(Cl)ccc2NC(=S)C1(C)C [Example 9, anti-6-Chloro-3,3-dimethyl-4-(n-propyloxyimino)-1,3dihydroquinoline-2-thion] | 3.37 to 33.7 | 0.04 (≈ 0.135 µM) | – |
| COCCON=C1c2cc(Cl)ccc2NC(=O)C1(C)C [Example 32] | 337 to 3370 | 1 (≈ 3.37 µM) | – |
| CC1(C)C(=O)Nc2ccc(Cl)cc2C1=NOCc1ccccc1 [Example 10A, anti-4-(Benzyloxyimino)-6-chloro-3,3-dimethyl-1,3-dihydroquinolin-2-one] | > 30400 | – | – |
| CC1(C)C(=O)Nc2ccc(Cl)cc2C1=NOCc1ccccc1Cl [Example 29] | 2750 to 27500 | – | – |
| CCCON=C1c2cc(Cl)ccc2NC(=O)C1(C)C [Example 8, anti-6-Chloro-3,3-dimethyl-4-(n-propyloxyimino)-l,3-dihydroquinolin-2-one] | 35.6 to 356 | 0.2 (≈ 0.712 µM) | – |

Reference: US5602146A, “4-iminoquinolines, processes for their preparation, and their use” (Hoechst Aktiengesellschaft, priority 1992, dated 1997)
